Results taken from US7585895B2, “Therapeutic substituted cyclopentanes” (Allergan, Inc., priority 2005, dated 2009).

Molecular target: T1, hEP1 (Homo sapiens, UniProt P34995)
T1 construct: expressed in transfected cells
T1 sequence (P34995 1-402): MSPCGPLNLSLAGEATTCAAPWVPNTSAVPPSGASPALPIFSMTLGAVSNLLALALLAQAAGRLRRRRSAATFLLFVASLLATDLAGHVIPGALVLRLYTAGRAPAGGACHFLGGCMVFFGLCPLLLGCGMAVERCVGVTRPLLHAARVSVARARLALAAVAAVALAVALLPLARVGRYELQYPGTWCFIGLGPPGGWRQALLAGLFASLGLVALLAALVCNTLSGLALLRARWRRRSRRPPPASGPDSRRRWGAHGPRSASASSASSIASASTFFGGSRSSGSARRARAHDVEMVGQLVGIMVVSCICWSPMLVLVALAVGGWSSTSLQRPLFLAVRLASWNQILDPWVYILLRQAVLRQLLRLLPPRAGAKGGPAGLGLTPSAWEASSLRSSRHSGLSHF
Experiment: FLIPR calcium signal, EP1
Assay type: cell-based
Settings: HEK-293(EBNA)
Procedure: HEK-293(EBNA) cells, stably expressing one type or subtype of recombinant human prostaglandin receptors (prostaglandin receptors expressed: hDP/Gqs5; hEP1; hEP2/Gqs5; hEP3A/Gqi5; hEP4/Gqs5; hFP; hIP; hTP), were cultured in 100 mm culture dishes in high-glucose DMEM medium containing 10% fetal bovine serum, 2 mM 1-glutamine, 250 μg/ml geneticin (G418) and 200 μg/ml hygromycin B as selection markers, and 100 units/ml penicillin G, 100 μg/ml streptomycin and 0.25 μg/ml amphotericin B.
Cells were seeded at a density of 5×10^4 cells per well in Biocoat® Poly-D-lysine-coated black-wall, clear-bottom 96-well plates (Becton-Dickinson) and allowed to attach overnight in an incubator at 37° C. Cells were then washed two times with HBSS-HEPES buffer (Hanks Balanced Salt Solution without bicarbonate and phenol red, 20 mM HEPES, pH 7.4) using a Denley Cellwash plate washer (Labsystems). After 45 minutes of dye-loading in the dark, using the calcium-sensitive dye Fluo-4 AM at a final concentration of 2 μM, plates were washed four times with HBSS-HEPES buffer to remove excess dye leaving 100 μl in each well. Plates were re-equilibrated to 37° C. for a few minutes.
Cells were excited with an Argon laser at 488 nm, and emission was measured through a 510-570 nm bandwidth emission filter (FLIPR™, Molecular Devices, Sunnyvale, Calif.). Drug solution was added in a 50 μl volume to each well to give the desired final concentration. The peak increase in fluorescence intensity was recorded for each well. On each plate, four wells each served as negative (HBSS-HEPES buffer) and positive controls (standard agonists: BW245C (hDP); PGE2 (HEP1; hEP2/Gqs5; hEP3A/Gqi5; hEP4/Gqs5); PGF2α (hFP); carbacyclin (hIP); U-46619 (hTP), depending on receptor). The peak fluorescence change in each drug-containing well was then expressed relative to the controls.
Compounds were tested in a high-throughput (HTS) or concentration-response (CoRe) format. In the HTS format, forty-four compounds per plate were examined in duplicates at a concentration of 10^−5 M. To generate concentration-response curves, four compounds per plate were tested in duplicates in a concentration range between 10^−5 and 10^−11 M. The duplicate values were averaged. In either, HTS or CoRe format each compound was tested on at least 3 separate plates using cells from different passages to give an n≧3.

Compound	Ca2+ Signal-EC50 (nM) EP1
CCCCC(O)C(C)(C)c1ccc([C@@H]2[C@@H](C/C=C\CCCC(=O)O)[C@H](Cl)C[C@H]2O)cc1 (mixture of isomers) [Entry 32, (Z)-7-{(1R,2S,3R,5R)-5-Chloro-3-hydroxy-2-[4-(2-hydroxy-1,1-dimethyl-hexyl)-phenyl]-cyclopentyl}-hept-5-enoic acid]	not active
O=C(O)CCCCCC[C@@H]1[C@@H](c2ccc(C(O)CCC3CCCCC3)cc2)[C@H](O)C[C@H]1Cl (stereo partly drawn) [Entry 16, 7-{(1R,2S,3R,5R)-5-Chloro-2-[4-(3-cyclohexyl-1-hydroxy-propyl)-phenyl]-3-hydroxy-cyclopentyl}-heptanoic acid]	not active
CCCCCC(O)c1ccc([C@@H]2[C@@H](C/C=C\CCCC(=O)O)[C@H](Cl)C[C@@H]2O)cc1 (stereo partly drawn) [Entry 34, (Z)-7-{(1R,2S,3S,5R)-5-Chloro-3-hydroxy-2-[4-(1-hydroxy-hexyl)-phenyl]-cyclopentyl}-hept-5-enoic acid]	not active
CCCCCC(O)c1ccc([C@@H]2[C@@H](C/C=C\CCCC(=O)O)[C@H](Cl)C[C@H]2O)cc1 (mixture of isomers) [Entry 11, (Z)-7-{(1R,2S,3R,5R)-5-Chloro-3-hydroxy-2-[4-(1-hydroxy-hexyl)-phenyl]-cyclopentyl}-hept-5-enoic acid]	not active
CCCCCC(O)C(C)(C)c1ccc([C@@H]2[C@@H](C/C=C\CCCC(=O)O)[C@H](Cl)C[C@H]2O)cc1 (stereo partly drawn) [Entry 31, (Z)-7-{(1R,2S,3R,5R)-5-Chloro-3-hydroxy-2-[4-(2-hydroxy-1,1-dimethyl-heptyl)-phenyl]-cyclopentyl}-hept-5-enoic acid]	not active
